# Laboratory results reported in ChEMBL document CHEMBL1201862, “PubChem BioAssay data set” (2004).
#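 These data come from cells grown in 96-well plates and exposed to compound for 48 hours at five concentrations. At the GI50, growth is halved.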 Active and inactive are the calls of the source. Cut-off read from the data, not from the text of the source: active = GI50 up to about 1.1 µM and inactive = higher.
# Assays:
# Assay in all cases: inhibition of tumour cell growth, NCI panel, 48 h
# [1] = tested on: HL-60
# [2] = tested on: MDA-MB-231
# [3] = tested on: MOLT-4
# [4] = tested on: HCT-116
# [5] = tested on: BT-549
# [6] = tested on: T47D
# [7] = tested on: MCF7
# [8] = tested on: SK-MEL-5
# [9] = tested on: PC-3
# [10] = tested on: NCI-H522
# [11] = tested on: HOP-62
# [12] = tested on: EKVX
# [13] = tested on: NCI-H226
# [14] = tested on: M14
# [15] = tested on: IGROV-1
# [16] = tested on: HCC 2998
# [17] = tested on: RPMI-8226
# [18] = tested on: OVCAR-3
SMILES,GI50 [1],GI50 [2],GI50 [3],GI50 [4],GI50 [5],GI50 [6],GI50 [7],GI50 [8],GI50 [9],GI50 [10],GI50 [11],GI50 [12],GI50 [13],GI50 [14],GI50 [15],GI50 [16],GI50 [17],GI50 [18]
COc1ccc2[nH]c(C(=O)N3CC(CCl)c4ccc(N)cc43)cc2c1 (stereo not drawn),0.0593 µM (active),0.202 µM (active),0.165 µM (active),0.164 µM (active),0.412 µM (active),0.455 µM (active),0.0689 µM (active),0.0451 µM (active),0.233 µM (active),0.0161 µM (active),0.327 µM (active),0.368 µM (active),0.32 µM (active),0.146 µM (active),0.175 µM (active),0.14 µM (active),0.361 µM (active),0.27 µM (active)
CCCCCC(=O)OC[n+]1cccc(-c2c(COC(=O)NC(C)C)c(COC(=O)NC(C)C)c3n2CCC3)c1,10.2 µM (inactive),60.4 µM (inactive),10.4 µM (inactive),45.3 µM (inactive),38.1 µM (inactive),> 61.8 µM (inactive),31.6 µM (inactive),40.6 µM (inactive),44.3 µM (inactive),15.6 µM (inactive),44.1 µM (inactive),> 100 µM (inactive),> 64.4 µM (inactive),52.1 µM (inactive),> 34.2 µM (inactive),> 100 µM (inactive),32.7 µM (inactive),54.1 µM (inactive)
O=C(/C=C(\O)c1cc(-c2ccccc2)n(-c2ccccc2)n1)c1ccccc1,4.43 µM (inactive),3.49 µM (inactive),0.415 µM (active),5.64 µM (inactive),2.3 µM (inactive),3.7 µM (inactive),9.73 µM (inactive),8.85 µM (inactive),9.29 µM (inactive),3.52 µM (inactive),3.46 µM (inactive),9.59 µM (inactive),3.38 µM (inactive),6.24 µM (inactive),2.51 µM (inactive),18.2 µM (inactive),1.8 µM (inactive),4.84 µM (inactive)
CO[C@@H]1[C@@H](OC2OC(C)C(OC3CC(C)(O)C(OC(=O)CC(C)C)C(C)O3)C(N(C)C)C2O)[C@@H](CC=O)C[C@@H](C)C(=O)/C=C/C2O[C@H]2C[C@@H](C)OC(=O)C[C@H]1OC(C)=O (stereo partly drawn),6.47 µM (inactive),24.8 µM (inactive),9.57 µM (inactive),14.9 µM (inactive),17.6 µM (inactive),18.7 µM (inactive),16.3 µM (inactive),15.3 µM (inactive),15.5 µM (inactive),16.6 µM (inactive),19 µM (inactive),22.4 µM (inactive),13 µM (inactive),16.1 µM (inactive),10.8 µM (inactive),17.7 µM (inactive),17.7 µM (inactive),14.3 µM (inactive)
Oc1ccc(Cn2c(-c3ccc(O)c(O)c3)nc3ccccc32)cc1O,16.8 µM (inactive),12.3 µM (inactive),2.52 µM (inactive),4.72 µM (inactive),10.4 µM (inactive),10.6 µM (inactive),30.1 µM (inactive),14.7 µM (inactive),22.1 µM (inactive),4.67 µM (inactive),14 µM (inactive),27.9 µM (inactive),7.43 µM (inactive),13.9 µM (inactive),11.9 µM (inactive),13.9 µM (inactive),13.3 µM (inactive),14.4 µM (inactive)
CCCCCCCCC[n+]1cccc(C2C(C(=O)OCC)=C(C)NC(C)=C2C(=O)OCC)c1,2.82 µM (inactive),2.97 µM (inactive),3.98 µM (inactive),4 µM (inactive),1.71 µM (inactive),5.04 µM (inactive),2.6 µM (inactive),1.88 µM (inactive),4.27 µM (inactive),2.68 µM (inactive),13 µM (inactive),11.9 µM (inactive),11.9 µM (inactive),2.7 µM (inactive),2.02 µM (inactive),6.01 µM (inactive),1.54 µM (inactive),3.86 µM (inactive)
C=C1C(=O)OC2CC(C)C(C(O)CC(C)O)=CCC12 (stereo not drawn),3.08 µM (inactive),17.8 µM (inactive),14 µM (inactive),8.71 µM (inactive),13.4 µM (inactive),7.08 µM (inactive),13.9 µM (inactive),19.4 µM (inactive),21.6 µM (inactive),1.61 µM (inactive),26.2 µM (inactive),12.5 µM (inactive),26.1 µM (inactive),15.2 µM (inactive),16.8 µM (inactive),18 µM (inactive),6.67 µM (inactive),9.62 µM (inactive)
Cc1cc(C)nc(SCCc2cccc[n+]2C)n1,> 100 µM (inactive),> 100 µM (inactive),> 100 µM (inactive),> 100 µM (inactive),> 100 µM (inactive),> 100 µM (inactive),> 100 µM (inactive),> 100 µM (inactive),> 100 µM (inactive),> 100 µM (inactive),> 100 µM (inactive),24.9 µM (inactive),> 100 µM (inactive),> 100 µM (inactive),> 100 µM (inactive),> 100 µM (inactive),> 100 µM (inactive),> 100 µM (inactive)
O=C(CCc1ccc(O)c(O)c1)NCCc1ccccc1,6.58 µM (inactive),16.8 µM (inactive),12.7 µM (inactive),26.4 µM (inactive),31.8 µM (inactive),34.4 µM (inactive),15.1 µM (inactive),22.4 µM (inactive),> 37.2 µM (inactive),5.6 µM (inactive),> 100 µM (inactive),> 94.2 µM (inactive),99.8 µM (inactive),> 85.7 µM (inactive),50.9 µM (inactive),> 100 µM (inactive),6.1 µM (inactive),30.1 µM (inactive)
Cc1nc(C)c(N2CCN(C#N)CC2)c(O)n1,> 100 µM (inactive),> 100 µM (inactive),> 100 µM (inactive),> 100 µM (inactive),> 100 µM (inactive),> 100 µM (inactive),> 100 µM (inactive),> 100 µM (inactive),> 100 µM (inactive),> 100 µM (inactive),> 100 µM (inactive),> 100 µM (inactive),> 100 µM (inactive),> 100 µM (inactive),> 100 µM (inactive),> 100 µM (inactive),> 100 µM (inactive),> 100 µM (inactive)
CC(CN1NC12CCCC2)N1NC12CCCC2 (stereo not drawn),> 100 µM (inactive),> 100 µM (inactive),> 100 µM (inactive),> 100 µM (inactive),> 100 µM (inactive),> 100 µM (inactive),> 100 µM (inactive),> 100 µM (inactive),> 100 µM (inactive),> 100 µM (inactive),> 100 µM (inactive),> 100 µM (inactive),> 100 µM (inactive),> 100 µM (inactive),> 100 µM (inactive),> 100 µM (inactive),> 100 µM (inactive),> 100 µM (inactive)
